This passage reports mutagenic call results from PubChem BioAssay AID1259407 (Chemical Carcinogenesis Research Information System (CCRIS), 2018).

Active and inactive are the calls of the source. How the calls were made is not given here.

The subject of this data set is CCRIS mutagenicity, Ames/micronucleus/aberration tests. The data set is described as follows: CCRIS mutagenicity studies.

For the molecule `CC(=O)O[C@]1(C(C)=O)CC[C@H]2[C@@H]3C4OC4(Cl)C4=CC(=O)[C@@H]5C[C@@H]5[C@]4(C)[C@H]3CC[C@@]21C` (some centres not stated), the mutagenic call runs as follows: (Test System: AMES SALMONELLA TYPHIMURIUM, Strain/Indicator: TA98, Metabolic Activation: NONE, Method: PREINCUBATION) “inactive; negative”; (Test System: AMES SALMONELLA TYPHIMURIUM, Strain/Indicator: TA98, Metabolic Activation: NONE, Method: STANDARD PLATE) “inactive; negative”; (Test System: AMES SALMONELLA TYPHIMURIUM, Strain/Indicator: TA98, Metabolic Activation: RAT, LIVER, S-9, AROCLOR 1254, Method: PREINCUBATION) “inactive; negative”; (Test System: AMES SALMONELLA TYPHIMURIUM, Strain/Indicator: TA98, Metabolic Activation: RAT, LIVER, S-9, AROCLOR 1254, Method: STANDARD PLATE) “inactive; negative”; (Test System: AMES SALMONELLA TYPHIMURIUM, Strain/Indicator: TA100, Metabolic Activation: NONE, Method: PREINCUBATION) “inactive; negative”; (Test System: AMES SALMONELLA TYPHIMURIUM, Strain/Indicator: TA100, Metabolic Activation: NONE, Method: STANDARD PLATE) “inactive; negative”. Further, the mutagenic call by setting is: (Test System: AMES SALMONELLA TYPHIMURIUM, Strain/Indicator: TA100, Metabolic Activation: RAT, LIVER, S-9, AROCLOR 1254, Method: PREINCUBATION) “inactive; negative”; (Test System: AMES SALMONELLA TYPHIMURIUM, Strain/Indicator: TA100, Metabolic Activation: RAT, LIVER, S-9, AROCLOR 1254, Method: STANDARD PLATE) “inactive; negative”; (Test System: AMES SALMONELLA TYPHIMURIUM, Strain/Indicator: TA1535, Metabolic Activation: NONE, Method: PREINCUBATION) “inactive; negative”; (Test System: AMES SALMONELLA TYPHIMURIUM, Strain/Indicator: TA1535, Metabolic Activation: NONE, Method: STANDARD PLATE) “inactive; negative”; (Test System: AMES SALMONELLA TYPHIMURIUM, Strain/Indicator: TA1535, Metabolic Activation: RAT, LIVER, S-9, AROCLOR 1254, Method: PREINCUBATION) “inactive; negative”; (Test System: AMES SALMONELLA TYPHIMURIUM, Strain/Indicator: TA1535, Metabolic Activation: RAT, LIVER, S-9, AROCLOR 1254, Method: STANDARD PLATE) “inactive; negative”. Also, the mutagenic call was “inactive; negative” (Test System: AMES SALMONELLA TYPHIMURIUM, Strain/Indicator: TA1537, Metabolic Activation: NONE, Method: PREINCUBATION); “inactive; negative” (Test System: AMES SALMONELLA TYPHIMURIUM, Strain/Indicator: TA1537, Metabolic Activation: NONE, Method: STANDARD PLATE); “inactive; negative” (Test System: AMES SALMONELLA TYPHIMURIUM, Strain/Indicator: TA1537, Metabolic Activation: RAT, LIVER, S-9, AROCLOR 1254, Method: PREINCUBATION); “inactive; negative” (Test System: AMES SALMONELLA TYPHIMURIUM, Strain/Indicator: TA1537, Metabolic Activation: RAT, LIVER, S-9, AROCLOR 1254, Method: STANDARD PLATE); “inactive; negative” (Test System: AMES SALMONELLA TYPHIMURIUM, Strain/Indicator: TA1538, Metabolic Activation: NONE, Method: PREINCUBATION); “inactive; negative” (Test System: AMES SALMONELLA TYPHIMURIUM, Strain/Indicator: TA1538, Metabolic Activation: NONE, Method: STANDARD PLATE). For the same molecule, the mutagenic call is “inactive; negative” (Test System: AMES SALMONELLA TYPHIMURIUM, Strain/Indicator: TA1538, Metabolic Activation: RAT, LIVER, S-9, AROCLOR 1254, Method: PREINCUBATION) and “inactive; negative” (Test System: AMES SALMONELLA TYPHIMURIUM, Strain/Indicator: TA1538, Metabolic Activation: RAT, LIVER, S-9, AROCLOR 1254, Method: STANDARD PLATE).
As to `CCCCC/C=C/C=O`, the mutagenic call is “active; positive” (Test System: CHINESE HAMSTER V-79, Strain/Indicator: V-79/6-THIOGUANINE, Metabolic Activation: NONE, Method: STANDARD PLATE) and “inactive; negative” (Test System: CHINESE HAMSTER V-79, Strain/Indicator: V-79/OUABAIN, Metabolic Activation: NONE, Method: STANDARD PLATE).
